Measured values taken from patent US12677832B2, “Oxadiazole compounds for controlling or preventing phytopathogenic fungi” (PI INDUSTRIES LTD., priority 2019, dated 2026).

Test system: Pyricularia oryzae
Assay: microbe, parasite or virus in culture
Format: cell-based
Conditions: 168 h, read-out: control

| SMILES | inhibition of growth at 300 ppm [%] |
| --- | --- |
| Nc1cc[n+](CC(=O)c2ccc(-c3noc(C(F)(F)F)n3)cc2)cc1 [Compound 148, 4-amino-1-(2-oxo-2-(4-(5-(trifluoromethyl)-1,2,4-oxadiazol-3-yl)phenyl)ethyl)pyridin-1-ium bromide] | ≥ 70 |
| CC(C)S(=O)(=O)CC(=O)c1ccc(-c2noc(C(F)(F)F)n2)cc1 [Compound 106, 2-(isopropylsulfonyl)-1-(4-(5-(trifluoromethyl)-1,2,4-oxadiazol-3-yl)phenyl)ethan-1-one] | ≥ 70 |
| O=C(CSc1ccc(C(F)(F)F)cc1)c1ccc(-c2noc(C(F)(F)F)n2)cc1 [Compound 71, 1-(4-(5-(trifluoromethyl)-1,2,4-oxadiazol-3-yl)phenyl)-2-((4-(trifluoromethyl)phenyl)thio)ethan-1-one] | ≥ 70 |

Test system: Phakopsora pachyrhizi
Assay: Phakopsora pachyrhizi Test in Soybean (preventive spray)
Format: in vivo
Conditions: preventive spray on Soybean plants, inoculated one day after treatment, disease severity vs untreated control
Description: Example 7: Phakopsora pachyrhizi Test in Soybean Compounds were dissolved in 2% dimethyl sulfoxide/acetone and then mixed with water containing an emulsifier to a calibrated spray volume of 50 mL. This 50 mL spray solution was poured into spray bottles for further applications. To test the preventive activity of compounds, healthy young Soybean plants, raised in the greenhouse, were sprayed with the active compound preparation at the stated application rates inside the spray cabinets using hollow cone nozzles. One day after treatment, the plants were inoculated with a spore suspension containing 2×10^5Phakopsora pachyrhizi conidia. The inoculated plants were then kept in a greenhouse chamber at 22-24° C. temperature and 80-90% relative humidity for disease expression. A visual assessment of the compound's performance was carried out by rating the disease severity (0-100% scale) on treated plants 3, 7, 10 and 15 days after application. Efficacy (% control) of the compounds was calculated by comparing the disease rating in the treatment with the one of the untreated control. The sprayed plants were also assessed for plant compatibility by recording symptoms like necrosis, chlorosis and stunting.

| SMILES | pest or weed control at 500 ppm [%] |
| --- | --- |
| O=C(CS(=O)(=O)C1CCCCC1)c1ccc(-c2noc(C(F)(F)F)n2)cc1 [Compound 100, 2-(cyclohexylsulfonyl)-1-(4-(5-(trifluoromethyl)-1,2,4-oxadiazol-3-yl)phenyl)ethan-1-one] | ≥ 70 |
| O=C(C[S+]([O-])c1ccc(Cl)cc1)c1ccc(-c2noc(C(F)(F)F)n2)cc1 (centres unmarked) [Compound 78, 2-((4-chlorophenyl)sulfinyl)-1-(4-(5-(trifluoromethyl)-1,2,4-oxadiazol-3-yl)phenyl)ethan-1-one] | ≥ 70 |
| COc1ccc(SCC(=O)c2ccc(-c3noc(C(F)(F)F)n3)cc2)cc1 [Compound 23, 2-((4-methoxyphenyl)thio)-1-(4-(5-(trifluoromethyl)-1,2,4-oxadiazol-3-yl)phenyl)ethan-1-one] | ≥ 70 |
| O=C(CSC1CCCC1)c1ccc(-c2noc(C(F)(F)F)n2)cc1 [Compound 24, 2-(cyclopentylthio)-1-(4-(5-(trifluoromethyl)-1,2,4-oxadiazol-3-yl)phenyl)ethan-1-one] | ≥ 70 |
| O=C(CS(=O)(=O)c1ccc(Cl)c(Cl)c1)c1ccc(-c2noc(C(F)(F)F)n2)cc1 [Compound 94, 2-((3,4-dichlorophenyl)sulfonyl)-1-(4-(5-(trifluoromethyl)-1,2,4-oxadiazol-3-yl)phenyl)ethan-1-one] | ≥ 70 |
| O=C(CSc1ccccc1F)c1ccc(-c2noc(C(F)(F)F)n2)cc1 [Compound 65, 2-((2-fluorophenyl)thio)-1-(4-(5-(trifluoromethyl)-1,2,4-oxadiazol-3-yl)phenyl)ethan-1-one] | ≥ 70 |
| O=C(CS(=O)(=O)c1ccc(F)c(F)c1)c1ccc(-c2noc(C(F)(F)F)n2)cc1 [Compound 96, 2-((3,4-difluorophenyl)sulfonyl)-1-(4-(5-(trifluoromethyl)-1,2,4-oxadiazol-3-yl)phenyl)ethan-1-one] | ≥ 70 |
| O=C(CS(=O)(=O)c1ccc(Cl)cc1)c1ccc(-c2noc(C(F)(F)F)n2)cc1 [Compound 95, 2-((4-chlorophenyl)sulfonyl)-1-(4-(5-(trifluoromethyl)-1,2,4-oxadiazol-3-yl)phenyl)ethan-1-one] | ≥ 70 |
| O=C(COc1cccnc1Cl)c1ccc(-c2noc(C(F)(F)F)n2)cc1 [Compound 46, 2-((2-chloropyridin-3-yl)oxy)-1-(4-(5-(trifluoromethyl)-1,2,4-oxadiazol-3-yl)phenyl)ethan-1-one] | ≥ 70 |
| Cc1csc(SCC(=O)c2ccc(-c3noc(C(F)(F)F)n3)cc2)n1 [Compound 26, 2-((4-methylthiazol-2-yl)thio)-1-(4-(5-(trifluoromethyl)-1,2,4-oxadiazol-3-yl)phenyl)ethan-1-one] | ≥ 70 |
| O=C(CSc1c(Cl)cccc1Cl)c1ccc(-c2noc(C(F)(F)F)n2)cc1 [Compound 13, 2-((2,6-dichlorophenyl)thio)-1-(4-(5-(trifluoromethyl)-1,2,4-oxadiazol-3-yl)phenyl)ethan-1-one] | ≥ 70 |
| Cc1cc(F)cc(OCC(=O)c2ccc(-c3noc(C(F)(F)F)n3)cc2)c1 [Compound 41, 2-(3-fluoro-5-methylphenoxy)-1-(4-(5-(trifluoromethyl)-1,2,4-oxadiazol-3-yl)phenyl)ethan-1-one] | ≥ 70 |
| O=C(COc1cccc(C(F)(F)F)c1)c1ccc(-c2noc(C(F)(F)F)n2)cc1 [Compound 40, 1-(4-(5-(trifluoromethyl)-1,2,4-oxadiazol-3-yl)phenyl)-2-(3-(trifluoromethyl)phenoxy)ethan-1-one] | ≥ 70 |
| O=C(COc1ccc(Cl)cc1Cl)c1ccc(-c2noc(C(F)(F)F)n2)cc1 [Compound 20, 2-(2,4-dichlorophenoxy)-1-(4-(5-(trifluoromethyl)-1,2,4-oxadiazol-3-yl)phenyl)ethan-1-one] | ≥ 70 |
| COc1ccccc1SCC(=O)c1ccc(-c2noc(C(F)(F)F)n2)cc1 [Compound 63, 2-((2-methoxyphenyl)thio)-1-(4-(5-(trifluoromethyl)-1,2,4-oxadiazol-3-yl)phenyl)ethan-1-one] | ≥ 70 |
| O=C(COc1ccc(F)cc1)c1ccc(-c2noc(C(F)(F)F)n2)cc1 [Compound 4, 2-(4-fluorophenoxy)-1-(4-(5-(trifluoromethyl)-1,2,4-oxadiazol-3-yl)phenyl)ethan-1-one] | ≥ 70 |

| SMILES | pest or weed control at 500 ppm [%] |
| --- | --- |
| O=C(COc1ccccc1F)c1ccc(-c2noc(C(F)(F)F)n2)cc1 [Compound 1, 2-(2-fluorophenoxy)-1-(4-(5-(trifluoromethyl)-1,2,4-oxadiazol-3-yl)phenyl)ethan-1-one] | ≥ 70 |
| O=C(CSc1ccc(Cl)c(Cl)c1)c1ccc(-c2noc(C(F)(F)F)n2)cc1 [Compound 52, 2-((3,4-dichlorophenyl)thio)-1-(4-(5-(trifluoromethyl)-1,2,4-oxadiazol-3-yl)phenyl)ethan-1-one] | ≥ 70 |
| O=C(COc1ccc(Br)cc1)c1ccc(-c2noc(C(F)(F)F)n2)cc1 [Compound 5, 2-(4-bromophenoxy)-1-(4-(5-(trifluoromethyl)-1,2,4-oxadiazol-3-yl)phenyl)ethan-1-one] | ≥ 70 |
| O=C(COc1ccc(Cl)c(C(F)(F)F)c1)c1ccc(-c2noc(C(F)(F)F)n2)cc1 [Compound 9, 2-(4-chloro-3-(trifluoromethyl)phenoxy)-1-(4-(5-(trifluoromethyl)-1,2,4-oxadiazol-3-yl)phenyl)ethan-1-one] | ≥ 70 |
| Cn1ccc(OCC(=O)c2ccc(-c3noc(C(F)(F)F)n3)cc2)n1 [Compound 50, 2-((1-methyl-1H-pyrazol-3-yl)oxy)-1-(4-(5-(trifluoromethyl)-1,2,4-oxadiazol-3-yl)phenyl)ethan-1-one] | ≥ 70 |
| O=C(COc1ccc(Br)c(F)c1)c1ccc(-c2noc(C(F)(F)F)n2)cc1 [Compound 12, 2-(4-bromo-3-fluorophenoxy)-1-(4-(5-(trifluoromethyl)-1,2,4-oxadiazol-3-yl)phenyl)ethan-1-one] | ≥ 70 |
| O=C(C[S+]([O-])c1ccccc1)c1ccc(-c2noc(C(F)(F)F)n2)cc1 (centres unmarked) [Compound 84, 2-(phenylsulfinyl)-1-(4-(5-(trifluoromethyl)-1,2,4-oxadiazol-3-yl)phenyl)ethan-1-one] | ≥ 70 |
| O=C(COc1ccc(F)cc1Cl)c1ccc(-c2noc(C(F)(F)F)n2)cc1 [Compound 19, 2-(2-chloro-4-fluorophenoxy)-1-(4-(5-(trifluoromethyl)-1,2,4-oxadiazol-3-yl)phenyl)ethan-1-one] | ≥ 70 |
| O=C(CNc1ccc(C(F)(F)F)cc1)c1ccc(-c2noc(C(F)(F)F)n2)cc1 [Compound 28, 1-(4-(5-(trifluoromethyl)-1,2,4-oxadiazol-3-yl)phenyl)-2-((4-(trifluoromethyl)phenyl)amino)ethan-1-one] | ≥ 70 |
| Cc1ccc(OCC(=O)c2ccc(-c3noc(C(F)(F)F)n3)cc2)cc1 [Compound 34, 2-(p-tolyloxy)-1-(4-(5-(trifluoromethyl)-1,2,4-oxadiazol-3-yl)phenyl)ethan-1-one] | ≥ 70 |
| O=C(CSc1ccccc1)c1ccc(-c2noc(C(F)(F)F)n2)cc1 [Compound 60, 2-(phenylthio)-1-(4-(5-(trifluoromethyl)-1,2,4-oxadiazol-3-yl)phenyl)ethan-1-one] | ≥ 70 |
| O=C(COc1cccc(Cl)c1)c1ccc(-c2noc(C(F)(F)F)n2)cc1 [Compound 35, 2-(3-chlorophenoxy)-1-(4-(5-(trifluoromethyl)-1,2,4-oxadiazol-3-yl)phenyl)ethan-1-one] | ≥ 70 |
| O=C(CSCc1ccccc1)c1ccc(-c2noc(C(F)(F)F)n2)cc1 [Compound 56, 2-(benzylthio)-1-(4-(5-(trifluoromethyl)-1,2,4-oxadiazol-3-yl)phenyl)ethan-1-one] | ≥ 70 |
| O=C(CSc1nc2ccccc2o1)c1ccc(-c2noc(C(F)(F)F)n2)cc1 [Compound 25, 2-(benzo[d]oxazol-2-ylthio)-1-(4-(5-(trifluoromethyl)-1,2,4-oxadiazol-3-yl)phenyl)ethan-1-one] | ≥ 70 |
| O=C(CN1CCOCC1)c1ccc(-c2noc(C(F)(F)F)n2)cc1 [Compound 136, 2-morpholino-1-(4-(5-(trifluoromethyl)-1,2,4-oxadiazol-3-yl)phenyl)ethan-1-one] | ≥ 70 |
| COc1ccc(CS(=O)(=O)CC(=O)c2ccc(-c3noc(C(F)(F)F)n3)cc2)cc1 [Compound 98, 2-((4-methoxybenzyl)sulfonyl)-1-(4-(5-(trifluoromethyl)-1,2,4-oxadiazol-3-yl)phenyl)ethan-1-one] | ≥ 70 |
